Test results: patent publication US9695171B2, “3,4-disubstituted-1 H-pyrrolo[2,3-b]pyridines and 4,5-disubstituted-7H-pyrrolo[2,3-c]pyridazines as LRRK2 inhibitors” (Pfizer Inc., priority 2013, dated 2017)

What follows are compounds tested against T1, GST-tagged truncated LRRK2 (Homo sapiens, UniProt Q5S007) (assay: LRRK2 kinase assay (Lantha Screen)). Conditions: 1 mM ATP (head); a = geometric mean of >=4 determinations, b = single determination; read-out: LRRK2 LANTHA EC50 at 1 mM ATP; Geometric mean of 2-3 determinations unless otherwise indicated.
T1 construct: GST-tagged truncated LRRK2 from Invitrogen (Cat # PV4874); GST; purchased Invitrogen PV4874
Type: biochemical
Protocol: LRRK2 kinase activity was measured using Lantha Screen technology from Invitrogen. GST-tagged truncated LRRK2 from Invitrogen (Cat # PV4874) was incubated with a fluorescein-labeled peptide substrate based upon ezrin/radixin/moesin (ERM), also known as LRRKtide (Invitrogen cat # PR8976A), in the presence of a dose response of compound. Upon completion, the assay was stopped and detected with a terbium labeled anti-phospho-ERM antibody (Invitrogen, cat # PR8975A). […] The compound dose response was prepared by diluting compound to a top concentration of 3.16 mM in 100% DMSO and serial diluted by half-log in DMSO 11 times. Aliquots (3.5 μL) of the 100% DMSO dose response were mixed with 46.5 μL water then 1 μL of this mixture was added to the 3 μL substrate mix in the 384-well plate. The kinase reaction was started with 3 μL of a working solution of LRRK2 enzyme at a concentration of 4 μg/mL. […] The reaction was allowed to progress at room temperature for two hours and then stopped with the addition of 7 μL of detection buffer (20 mM Tris pH 7.6, 0.01% NP-40, 0.02% NaN3, 6 mM EDTA with 2 nM terbium labeled anti-phospho-ERM). After an incubation of 1 hour at room temperature, the plate was read on an Envision with an excitation wavelength of 340 nm and a reading emission at both 520 nm and 495 nm. The ratio of the 520 nm and 495 nm emission was used to analyze the data.

T1 sequence (Q5S007 970-2527 limits assumed): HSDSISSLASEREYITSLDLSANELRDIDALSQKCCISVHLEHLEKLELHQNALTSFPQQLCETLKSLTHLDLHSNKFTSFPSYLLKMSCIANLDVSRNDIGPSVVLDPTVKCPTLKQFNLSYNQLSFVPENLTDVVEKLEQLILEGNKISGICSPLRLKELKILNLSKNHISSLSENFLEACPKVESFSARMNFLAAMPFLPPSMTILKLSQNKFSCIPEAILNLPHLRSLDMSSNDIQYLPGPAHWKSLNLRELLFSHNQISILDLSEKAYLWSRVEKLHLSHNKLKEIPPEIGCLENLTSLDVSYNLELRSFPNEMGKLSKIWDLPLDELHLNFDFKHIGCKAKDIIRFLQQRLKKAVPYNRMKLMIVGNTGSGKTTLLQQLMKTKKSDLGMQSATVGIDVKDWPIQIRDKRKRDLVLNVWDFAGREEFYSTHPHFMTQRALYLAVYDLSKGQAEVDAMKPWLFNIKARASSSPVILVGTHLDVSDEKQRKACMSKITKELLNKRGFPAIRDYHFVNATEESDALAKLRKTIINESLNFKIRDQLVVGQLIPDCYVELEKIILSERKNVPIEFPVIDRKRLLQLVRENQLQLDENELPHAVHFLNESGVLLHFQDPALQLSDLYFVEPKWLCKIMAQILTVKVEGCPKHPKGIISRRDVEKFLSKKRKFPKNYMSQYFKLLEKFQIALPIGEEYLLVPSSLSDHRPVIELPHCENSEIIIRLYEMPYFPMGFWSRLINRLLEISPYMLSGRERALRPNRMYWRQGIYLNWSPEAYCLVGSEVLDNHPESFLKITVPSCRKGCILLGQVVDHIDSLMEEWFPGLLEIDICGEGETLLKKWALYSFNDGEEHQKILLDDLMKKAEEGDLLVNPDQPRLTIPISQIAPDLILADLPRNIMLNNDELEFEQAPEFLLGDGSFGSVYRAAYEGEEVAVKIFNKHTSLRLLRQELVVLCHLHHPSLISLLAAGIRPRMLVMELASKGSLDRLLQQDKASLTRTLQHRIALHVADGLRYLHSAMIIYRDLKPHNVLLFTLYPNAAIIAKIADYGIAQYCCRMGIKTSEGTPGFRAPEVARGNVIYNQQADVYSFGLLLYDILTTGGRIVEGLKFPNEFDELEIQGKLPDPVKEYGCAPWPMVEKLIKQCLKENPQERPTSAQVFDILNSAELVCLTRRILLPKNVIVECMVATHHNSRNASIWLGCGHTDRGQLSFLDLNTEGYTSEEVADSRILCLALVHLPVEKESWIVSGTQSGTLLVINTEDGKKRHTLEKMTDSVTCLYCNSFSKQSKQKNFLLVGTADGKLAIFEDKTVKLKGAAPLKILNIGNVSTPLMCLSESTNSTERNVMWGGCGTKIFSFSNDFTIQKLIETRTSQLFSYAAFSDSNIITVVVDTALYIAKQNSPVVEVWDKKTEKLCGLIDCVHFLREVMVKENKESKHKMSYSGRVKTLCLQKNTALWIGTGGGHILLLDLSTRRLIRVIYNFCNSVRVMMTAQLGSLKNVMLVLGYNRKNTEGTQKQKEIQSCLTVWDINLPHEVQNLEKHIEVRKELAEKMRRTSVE

Going from `N#Cc1cccc(-c2c[nH]c3nccc(N4CC[C@@H](F)C4)c23)c1` [Example 75, 3-{4-[(3R)-3-fluoropyrrolidin-1-yl]-1H-pyrrolo[2,3-b]pyridin-3-yl}benzonitrile] to `C[C@H]1CN(c2ccnc3[nH]cc(-c4cccc(C#N)c4)c23)CCO1` [Example 80, 3-{4-[(2S)-2-methylmorpholin-4-yl]-1H-pyrrolo[2,3-b]pyridin-3-yl}benzonitrile], the EC50 falls from 38.7 nM to 10.5 nM (3.7-fold).

First: Clc1cccc(-c2c[nH]c3nccc(N4CCOCC4)c23)c1 [Example 20, 3-(3-chlorophenyl)-4-(morpholin-4-yl)-1H-pyrrolo[2,3-b]pyridine]
Second: N#Cc1cccc(-c2c[nH]c3nccc(N4CCOCC4)c23)c1 [Example 1, 3-[4-(Morpholin-4-yl)-1H-pyrrolo[2,3-b]pyridin-3-yl]benzonitrile]
The EC50 of the first is 13-fold higher: 53.7 nM for the first, 4.28 nM for the second. The second is the more potent here.

Compared with `Cc1nnc(-c2cccc(-c3ccnc4[nH]cc(-c5cccc(C#N)c5)c34)c2)o1` [Example 112, 3-{4-[3-(5-methyl-1,3,4-oxadiazol-2-yl)phenyl]-1H-pyrrolo[2,3-b]pyridin-3-yl}benzonitrile], `CNS(=O)(=O)c1cccc(-c2ccnc3[nH]cc(-c4cccc(C#N)c4)c23)c1` [Example 99, 3-[3-(3-cyanophenyl)-1H-pyrrolo[2,3-b]pyridin-4-yl]-N-methylbenzenesulfonamide] is 2.5-fold lower in EC50: 234 nM for the first, 92.5 nM for the second.

Compared with `Cn1cc(-c2c[nH]c3nccc(N4CCCC(O)C4)c23)cn1` (stereo not shown) [Example 57, 1-[3-(1-methyl-1H-pyrazol-4-yl)-1H-pyrrolo[2,3-b]pyridin-4-yl]piperidin-3-ol], `Cn1cc(-c2c[nH]c3nccc(N4CCC(F)(F)C4)c23)cn1` [Example 64, 4-(3,3-difluoropyrrolidin-1-yl)-3-(1-methyl-1H-pyrazol-4-yl)-1H-pyrrolo[2,3-b]pyridine] is 2.1-fold higher in EC50: 91.9 nM for the first, 195 nM for the second. The first is the more potent here.

`N#Cc1cc(F)cc(-c2c[nH]c3nccc(N4CCOCC4)c23)c1` [Example 39, 3-fluoro-5-[4-(morpholin-4-yl)-1H-pyrrolo[2,3-b]pyridin-3-yl]benzonitrile] and `N#Cc1ccc(F)c(-c2c[nH]c3nccc(N4CCOCC4)c23)c1` [Example 47, 4-fluoro-3-[4-(morpholin-4-yl)-1H-pyrrolo[2,3-b]pyridin-3-yl]benzonitrile] are within 1.5-fold of each other in EC50: 140 nM for the first, 144 nM for the second.

`Cn1cc(-c2c[nH]c3nccc(-c4ccoc4)c23)cn1` [Example 106, 4-(furan-3-yl)-3-(1-methyl-1H-pyrazol-4-yl)-1H-pyrrolo[2,3-b]pyridine] and `Cn1cc(-c2c[nH]c3nccc(-c4ccncc4)c23)cn1` [Example 102, 3-(1-methyl-1H-pyrazol-4-yl)-4-(pyridin-4-yl)-1H-pyrrolo[2,3-b]pyridine] are within 1.5-fold of each other in EC50: 144 nM for the first, 102 nM for the second.

`Cc1cc(N2CCOCC2)c2c(-c3cccc(C#N)c3)c[nH]c2n1` [Example 9, 3-[6-Methyl-4-(morpholin-4-yl)-1H-pyrrolo[2,3-b]pyridin-3-yl]benzonitrile] and `N#Cc1ccc(-c2c[nH]c3nccc(N4CCOCC4)c23)c(F)c1` [Example 48, 3-fluoro-4-[4-(morpholin-4-yl)-1H-pyrrolo[2,3-b]pyridin-3-yl]benzonitrile] are within 1.5-fold of each other in EC50: 208 nM for the first, 217 nM for the second.

First: c1cnn2c(-c3c[nH]c4nccc(N5CCOCC5)c34)cnc2c1 [Example 3, 3-[4-(Morpholin-4-yl)-1H-pyrrolo[2,3-b]pyridin-3-yl]imidazo[1,2-b]pyridazine]
Second: Fc1ccccc1-c1c[nH]c2nccc(N3CCOCC3)c12 [Example 26, 3-(2-fluorophenyl)-4-(morpholin-4-yl)-1H-pyrrolo[2,3-b]pyridine]
The EC50 of the first is 2.1-fold lower: 14 nM for the first, 29 nM for the second.

Compared with `Cn1cc(-c2c[nH]c3nccc(N4CCOCC4)c23)nc1C#N` [Example 5, 1-Methyl-4-[4-(morpholin-4-yl)-1H-pyrrolo[2,3-b]pyridin-3-yl]-1H-imidazole-2-carbonitrile], `Cn1cc(-c2c[nH]c3nccc(N4CCOCC4)c23)cc1C(N)=O` [Example 85, 1-methyl-4-[4-(morpholin-4-yl)-1H-pyrrolo[2,3-b]pyridin-3-yl]-1H-pyrrole-2-carboxamide] is 4.1-fold higher in EC50: 5.26 nM for the first, 21.7 nM for the second.

`Cn1cc(-c2c[nH]c3nccc(C4=CCOCC4)c23)cn1` [Example 12, 4-(3,6-Dihydro-2H-pyran-4-yl)-3-(1-methyl-1H-pyrazol-4-yl)-1H-pyrrolo[2,3-b]pyridine] and `Cn1cc(-c2c[nH]c3nccc(-c4ccc(F)c(F)c4)c23)cn1` [Example 94, 4-(3,4-difluorophenyl)-3-(1-methyl-1H-pyrazol-4-yl)-1H-pyrrolo[2,3-b]pyridine] are within 1.5-fold of each other in EC50: 59.6 nM for the first, 45.6 nM for the second.

`N#Cc1cccc(-c2c[nH]c3nccc(N4CCCC(F)(F)C4)c23)c1` [Example 79, 3-[4-(3,3-difluoropiperidin-1-yl)-1H-pyrrolo[2,3-b]pyridin-3-yl]benzonitrile] and `COC1CCCN(c2ccnc3[nH]cc(-c4cccc(C#N)c4)c23)C1` (stereo not shown) [Example 71, 3-[4-(3-methoxypiperidin-1-yl)-1H-pyrrolo[2,3-b]pyridin-3-yl]benzonitrile] are within 1.5-fold of each other in EC50: 99.2 nM for the first, 95.8 nM for the second.

First: Cn1cc(-c2c[nH]c3nncc(N4CCOCC4)c23)cc1C#N [Example 6, 1-Methyl-4-[4-(morpholin-4-yl)-7H-pyrrolo[2,3-c]pyridazin-5-yl]-1H-pyrrole-2-carbonitrile]
Second: COc1cncc(-c2c[nH]c3nccc(N4CCOCC4)c23)c1 [Example 42, 3-(5-methoxypyridin-3-yl)-4-(morpholin-4-yl)-1H-pyrrolo[2,3-b]pyridine]
The EC50 of the first is 17-fold lower: 14.2 nM for the first, 240 nM for the second.

First: COCc1cccc(-c2ccnc3[nH]cc(-c4cnn(C)c4)c23)c1 [Example 111, 4-[3-(methoxymethyl)phenyl]-3-(1-methyl-1H-pyrazol-4-yl)-1H-pyrrolo[2,3-b]pyridine]
Second: Cn1cc(-c2ccnc3[nH]cc(-c4cccc(C#N)c4)c23)cn1 [Example 101, 3-[4-(1-methyl-1H-pyrazol-4-yl)-1H-pyrrolo[2,3-b]pyridin-3-yl]benzonitrile]
The EC50 of the first is 2.3-fold higher: 234 nM for the first, 101 nM for the second.

Compared with `Cc1[nH]c2nccc(N3CCOCC3)c2c1-c1cccc(F)c1` [Example 55, 3-(3-fluorophenyl)-2-methyl-4-(morpholin-4-yl)-1H-pyrrolo[2,3-b]pyridine], `Cc1[nH]c2nccc(N3CCOCC3)c2c1-c1cccc(Cl)c1` [Example 52, 3-(3-chlorophenyl)-2-methyl-4-(morpholin-4-yl)-1H-pyrrolo[2,3-b]pyridine] is 1.6-fold higher in EC50: 101 nM for the first, 158 nM for the second.

Compared with `Cc1[nH]c2nccc(N3CCOCC3)c2c1-c1ccccc1` [Example 53, 2-methyl-4-(morpholin-4-yl)-3-phenyl-1H-pyrrolo[2,3-b]pyridine], `Cc1[nH]c2nccc(N3CCOCC3)c2c1-c1cccc(C#N)n1` [Example 43, 6-[2-methyl-4-(morpholin-4-yl)-1H-pyrrolo[2,3-b]pyridin-3-yl]pyridine-2-carbonitrile] is 6.3-fold lower in EC50: 201 nM for the first, 31.9 nM for the second. The second is the more potent here.

Going from `CN(C)c1c(C#N)cnc2[nH]cc(-c3cccc(C#N)c3F)c12` [Example 14, 3-(3-cyano-2-fluorophenyl)-4-(dimethylamino)-1H-pyrrolo[2,3-b]pyridine-5-carbonitrile] to `COc1ccc(F)c(F)c1-c1c[nH]c2ncc(C#N)c(C3CC3)c12` [Example 100, 4-cyclopropyl-3-(2,3-difluoro-6-methoxyphenyl)-1H-pyrrolo[2,3-b]pyridine-5-carbonitrile], the EC50 rises from 25.9 nM to 99.2 nM (3.8-fold).

First: N#Cc1cccc(-c2c[nH]c3nccc(-c4cccnc4)c23)c1 [Example 93, 3-[4-(pyridin-3-yl)-1H-pyrrolo[2,3-b]pyridin-3-yl]benzonitrile]
Second: N#Cc1cccc(-c2c[nH]c3nccc(-c4ccncc4)c23)c1 [Example 88, 3-[4-(pyridin-4-yl)-1H-pyrrolo[2,3-b]pyridin-3-yl]benzonitrile]
The EC50 of the first is 4.6-fold higher: 45.6 nM for the first, 9.93 nM for the second.

`COc1cccc(-c2ccnc3[nH]cc(-c4cnn(C)c4)c23)c1F` [Example 98, 4-(2-fluoro-3-methoxyphenyl)-3-(1-methyl-1H-pyrazol-4-yl)-1H-pyrrolo[2,3-b]pyridine] and `COc1cccc(-c2c[nH]c3nccc(N4CCOCC4)c23)c1` [Example 31, 3-(3-methoxyphenyl)-4-(morpholin-4-yl)-1H-pyrrolo[2,3-b]pyridine] are within 1.5-fold of each other in EC50: 85.9 nM for the first, 124 nM for the second.

`N#Cc1cccc(-c2c[nH]c3nccc(-c4cccc(C(=O)NC5CC5)c4)c23)c1` [Example 91, 3-[3-(3-cyanophenyl)-1H-pyrrolo[2,3-b]pyridin-4-yl]-N-cyclopropylbenzamide] and `N#Cc1cccc(-c2c[nH]c3nccc(N4C[C@@H](F)[C@H](F)C4)c23)c1` [Example 73, 3-{4-[(3R,4R)-3,4-difluoropyrrolidin-1-yl]-1H-pyrrolo[2,3-b]pyridin-3-yl}benzonitrile] are within 1.5-fold of each other in EC50: 43.4 nM for the first, 44.4 nM for the second.

Compared with `Clc1ccccc1-c1c[nH]c2nccc(N3CCOCC3)c12` [Example 23, 3-(2-chlorophenyl)-4-(morpholin-4-yl)-1H-pyrrolo[2,3-b]pyridine], `N#Cc1cccc(-c2c[nH]c3nccc(N4C[C@H]5C[C@@H](C4)O5)c23)c1` [Example 72, 3-[4-(6-oxa-3-azabicyclo[3.1.1]hept-3-yl)-1H-pyrrolo[2,3-b]pyridin-3-yl]benzonitrile] is 2.1-fold lower in EC50: 143 nM for the first, 68.3 nM for the second.
